# Data from patent US9695155B2, “Herbicidal substituted pyrimidinyloxy benzene compounds” (E. I. DU PONT DE NEMOURS AND COMPANY, priority 2013, dated 2017).
# Experiments:
# sedge, umbrella = test: Test B flooded paddy test; type: in vivo, Cyperus difformis; details: Flood, 250 g ai/ha; 0 to 100 scale where 0 is no effect and 100 is complete control
# In short: (§1)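 2-leaf stage plants; pots flooded to 3 cm, compound added to paddy water, depth maintained. Greenhouse 13–15 d. Visual rating vs untreated controls, 0 (no effect) to 100 (complete control); dash = no result.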
# barnyardgrass [1] = test: Test B flooded paddy test; type: in vivo, Echinochloa crus-galli; details: Flood, 250 g ai/ha; 0 to 100 scale where 0 is no effect and 100 is complete control
# In short: as §1
# waterhemp = test: Test C postemergence; type: in vivo, Amaranthus rudis; details: for Plant response rating, Waterhemp: scale 0 to 100 (0 no effect, 100 complete control)
# In short: (§2)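 Visual injury score versus untreated controls, 0 = no effect, 100 = complete control, taken 13 to 15 days after treatment in the greenhouse. Pre-emergence pots held loam/sand; post-emergence plants grew in sphagnum peat/vermiculite mix and were sprayed at the 1- to 4-leaf stage.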
# large (Lg) crabgrass = test: Test C postemergence; type: in vivo, Digitaria sanguinalis; details: for Plant response rating, Crabgrass, Large / Crabgrass, Large plant response rating: scale 0 to 100 (0 no effect, 100 complete control); for Crabgrass, Large plant response rating: 16 g ai/ha
# In short: as §2
# oilseed rape [2] = test: Test C postemergence; type: in vivo, Brassica napus; details: for Plant response rating, Oilseed Rape: scale 0 to 100 (0 no effect, 100 complete control)
# In short: as §2
# oilseed rape [3] = test: Test C preemergence; type: in vivo, Brassica napus; details: for Oilseed Rape plant response rating: preemergence; for Plant response rating, Oilseed Rape: Preemergence, 31 g ai/ha, scale 0 to 100, 0 no effect, 100 complete control
# In short: as §2
# giant foxtail = test: Test C preemergence; type: in vivo, Setaria faberii; details: for Foxtail, Giant plant response rating: preemergence; for Plant response rating, Foxtail, Giant: Preemergence, 31 g ai/ha, scale 0 to 100, 0 no effect, 100 complete control
# In short: as §2
# soybean = test: Test C postemergence; type: in vivo, Glycine max; details: for Plant response rating, Soybean: scale 0 to 100 (0 no effect, 100 complete control)
# In short: as §2
# velvetleaf [4] = test: Test A postemergence; type: in vivo, Abutilon theophrasti; details: 0 to 100 scale where 0 is no effect and 100 is complete control
# In short: (§3)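 Pre- and postemergence greenhouse screen. Soil: loam + sand. Spray carrier: solvent mixture, non-phytotoxic, with surfactant. Post timing at 1–2 leaves, height 2–10 cm. Readout: visual injury on a 0–100 scale roughly 10 days after application, untreated plants as reference.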
# wheat = test: Test A preemergence; type: in vivo, Triticum aestivum; details: for Plant response rating, Wheat: 125 g ai/ha, 0 to 100 scale where 0 is no effect and 100 is complete control
# In short: as §3
# barnyardgrass [5] = test: Test C postemergence; type: in vivo, Echinochloa crus-galli; details: for Plant response rating, Barnyardgrass / Barnyardgrass plant response rating: scale 0 to 100 (0 no effect, 100 complete control); for Barnyardgrass plant response rating: 16 g ai/ha
# In short: as §2
# barnyardgrass [6] = test: Test C preemergence; type: in vivo, Echinochloa crus-galli; details: for Barnyardgrass plant response rating: preemergence; for Plant response rating, Barnyardgrass: Preemergence, 31 g ai/ha, scale 0 to 100, 0 no effect, 100 complete control
# In short: as §2
# velvetleaf [7] = test: Test C postemergence; type: in vivo, Abutilon theophrasti; details: for Plant response rating, Velvetleaf: scale 0 to 100 (0 no effect, 100 complete control)
# In short: as §2
# corn = test: Test C preemergence; type: in vivo, Zea mays; details: for Corn plant response rating: preemergence; for Plant response rating, Corn: Preemergence, 31 g ai/ha, scale 0 to 100, 0 no effect, 100 complete control
# In short: as §2
# morningglory = test: Test A preemergence; type: in vivo, Ipomoea spp.; details: for Plant response rating, Morningglory: 125 g ai/ha, 0 to 100 scale where 0 is no effect and 100 is complete control; for Morningglory plant response rating: 500 g ai/ha, 0 to 100 scale, 0 no effect, 100 complete control, approx. 10 days
# In short: as §3
# [8] = Postemergence, 31 g ai/ha, 13 to 15 days
# [9] = 62 g ai/ha, scale 0 (no effect) to 100 (complete control)
# [10] = 125 g ai/ha, scale 0 (no effect) to 100 (complete control)
# [11] = 250 g ai/ha, scale 0 (no effect) to 100 (complete control)
# [12] = postemergence, visual rating, 13 to 15 days
# [13] = 16 g ai/ha, scale 0 to 100 (0 no effect, 100 complete control)
# [14] = 125 g ai/ha, postemergence, visual rating
smiles,measurement,setting,value
N#Cc1cccc(Oc2ncc(F)cn2)c1-n1cc(Cl)cn1 [Compound 73],"Plant response rating, Sedge, Umbrella","sedge, umbrella",85
same,"Plant response rating, Barnyardgrass",barnyardgrass [1],0
same,"Plant response rating (0 to 100), Waterhemp","waterhemp; 125 g ai/ha, postemergence",75
same,"Plant response rating (0 to 100), Waterhemp","waterhemp; 250 g ai/ha, postemergence",90
same,"Plant response rating, Waterhemp",waterhemp; [8],50
same,"Plant response rating, Waterhemp","waterhemp; Postemergence, 62 g ai/ha",60
same,"Plant response rating (0 to 100), Crabgrass, Large","large (Lg) crabgrass; 125 g ai/ha, postemergence",10
same,"Plant response rating (0 to 100), Crabgrass, Large","large (Lg) crabgrass; 250 g ai/ha, postemergence",20
same,"Plant response rating, Crabgrass, Large",large (Lg) crabgrass; [8],5
same,"Plant response rating, Crabgrass, Large","large (Lg) crabgrass; Postemergence, 62 g ai/ha",10
same,"Plant response rating (0 to 100), Oilseed Rape","oilseed rape [2]; 125 g ai/ha, postemergence",60
same,"Plant response rating (0 to 100), Oilseed Rape","oilseed rape [2]; 250 g ai/ha, postemergence",80
same,"Plant response rating, Oilseed Rape",oilseed rape [2]; [8],10
same,"Plant response rating, Oilseed Rape","oilseed rape [2]; Postemergence, 62 g ai/ha",30
same,Oilseed Rape plant response rating,oilseed rape [3]; [9],95
same,Oilseed Rape plant response rating,oilseed rape [3]; [10],100
same,Oilseed Rape plant response rating,oilseed rape [3]; [11],100
same,"Plant response rating, Oilseed Rape",oilseed rape [3],85
same,"Foxtail, Giant plant response rating",giant foxtail; [9],100
same,"Foxtail, Giant plant response rating",giant foxtail; [10],100
same,"Foxtail, Giant plant response rating",giant foxtail; [11],100
same,"Plant response rating, Foxtail, Giant",giant foxtail,85
same,"Plant response rating (0 to 100), Soybean","soybean; 125 g ai/ha, postemergence",80
same,"Plant response rating (0 to 100), Soybean","soybean; 250 g ai/ha, postemergence",90
same,"Plant response rating, Soybean",soybean; [8],40
same,"Plant response rating, Soybean","soybean; Postemergence, 62 g ai/ha",70
same,"Plant response rating, Velvetleaf",velvetleaf [4]; 125 g ai/ha,100
same,"Plant response rating, Velvetleaf",velvetleaf [4]; 500 g ai/ha,100
same,"Plant response rating, Wheat",wheat,0
same,Wheat plant response rating,"wheat; 500 g ai/ha, 0 to 100 scale, 0 no effect, 100 complete control, approx. 10 days",80
same,"Plant response rating (0 to 100), Barnyardgrass","barnyardgrass [5]; 125 g ai/ha, postemergence",10
same,"Plant response rating (0 to 100), Barnyardgrass","barnyardgrass [5]; 250 g ai/ha, postemergence",35
same,"Plant response rating, Barnyardgrass",barnyardgrass [5]; [8],0
same,"Plant response rating, Barnyardgrass","barnyardgrass [5]; Postemergence, 62 g ai/ha",0
same,Barnyardgrass plant response rating,barnyardgrass [6]; [9],80
same,Barnyardgrass plant response rating,barnyardgrass [6]; [10],100
same,Barnyardgrass plant response rating,barnyardgrass [6]; [11],100
same,"Plant response rating, Barnyardgrass",barnyardgrass [6],60
same,"Plant response rating (0 to 100), Velvetleaf","velvetleaf [7]; 125 g ai/ha, postemergence",50
same,"Plant response rating (0 to 100), Velvetleaf","velvetleaf [7]; 250 g ai/ha, postemergence",70
same,"Plant response rating, Velvetleaf",velvetleaf [7]; [8],30
same,"Plant response rating, Velvetleaf","velvetleaf [7]; Postemergence, 62 g ai/ha",30
same,Corn plant response rating,corn; [9],0
same,Corn plant response rating,corn; [10],5
same,Corn plant response rating,corn; [11],70
same,"Plant response rating, Corn",corn,0
same,"Plant response rating, Morningglory",morningglory,90
same,Morningglory plant response rating,morningglory,100
CCOc1cnn(-c2c(C#N)cccc2Oc2ncc(Cl)cn2)c1 [Compound 92],"Plant response rating, Sedge, Umbrella","sedge, umbrella",90
same,"Plant response rating, Barnyardgrass",barnyardgrass [1],20
same,"Plant response rating (0 to 100), Waterhemp","waterhemp; 125 g ai/ha, postemergence",80
same,"Plant response rating, Waterhemp",waterhemp; [8],45
same,"Plant response rating, Waterhemp","waterhemp; Postemergence, 62 g ai/ha",75
same,"Crabgrass, Large plant response rating",large (Lg) crabgrass; [12],5
same,"Plant response rating (0 to 100), Crabgrass, Large","large (Lg) crabgrass; 125 g ai/ha, postemergence",10
same,"Plant response rating, Crabgrass, Large",large (Lg) crabgrass; [8],5
same,"Plant response rating, Crabgrass, Large","large (Lg) crabgrass; Postemergence, 62 g ai/ha",5
same,"Plant response rating (0 to 100), Oilseed Rape","oilseed rape [2]; 125 g ai/ha, postemergence",70
same,"Plant response rating, Oilseed Rape",oilseed rape [2]; [8],45
same,"Plant response rating, Oilseed Rape","oilseed rape [2]; Postemergence, 62 g ai/ha",60
same,Oilseed Rape plant response rating,oilseed rape [3]; [13],80
same,Oilseed Rape plant response rating,oilseed rape [3]; [9],85
same,Oilseed Rape plant response rating,oilseed rape [3]; [10],95
same,"Plant response rating, Oilseed Rape",oilseed rape [3],80
same,"Foxtail, Giant plant response rating",giant foxtail; [13],30
same,"Foxtail, Giant plant response rating",giant foxtail; [9],100
same,"Foxtail, Giant plant response rating",giant foxtail; [10],100
same,"Plant response rating, Foxtail, Giant",giant foxtail,98
same,"Plant response rating (0 to 100), Soybean","soybean; 125 g ai/ha, postemergence",95
same,"Plant response rating, Soybean",soybean; [8],70
same,"Plant response rating, Soybean","soybean; Postemergence, 62 g ai/ha",90
same,"Plant response rating, Velvetleaf",velvetleaf [4]; 125 g ai/ha,100
same,"Plant response rating, Velvetleaf",velvetleaf [4]; 500 g ai/ha,100
same,"Plant response rating, Wheat",wheat,0
same,Barnyardgrass plant response rating,barnyardgrass [5]; [12],5
same,"Plant response rating (0 to 100), Barnyardgrass","barnyardgrass [5]; 125 g ai/ha, postemergence",10
same,"Plant response rating, Barnyardgrass",barnyardgrass [5]; [8],5
same,"Plant response rating, Barnyardgrass","barnyardgrass [5]; Postemergence, 62 g ai/ha",5
same,Barnyardgrass plant response rating,barnyardgrass [6]; [13],5
same,Barnyardgrass plant response rating,barnyardgrass [6]; [9],100
same,Barnyardgrass plant response rating,barnyardgrass [6]; [10],100
same,"Plant response rating, Barnyardgrass",barnyardgrass [6],75
same,"Plant response rating (0 to 100), Velvetleaf","velvetleaf [7]; 125 g ai/ha, postemergence",60
same,"Plant response rating, Velvetleaf",velvetleaf [7]; [8],45
same,"Plant response rating, Velvetleaf","velvetleaf [7]; Postemergence, 62 g ai/ha",50
same,Corn plant response rating,corn; [13],0
same,Corn plant response rating,corn; [9],5
same,Corn plant response rating,corn; [10],65
same,"Plant response rating, Corn",corn,0
same,"Plant response rating, Morningglory",morningglory,90
same,Morningglory plant response rating,morningglory,100
N#Cc1cnn(-c2c(C#N)cccc2Oc2ncc(F)cn2)c1 [Compound 111],"Plant response rating, Sedge, Umbrella","sedge, umbrella",75
same,"Plant response rating, Barnyardgrass",barnyardgrass [1],0
same,"Plant response rating, Waterhemp",waterhemp; [14],90
same,"Plant response rating, Waterhemp","waterhemp; Postemergence, 62 g ai/ha",80
same,"Crabgrass, Large plant response rating",large (Lg) crabgrass; [12],5
same,"Plant response rating, Crabgrass, Large",large (Lg) crabgrass; [14],35
same,"Plant response rating, Crabgrass, Large","large (Lg) crabgrass; Postemergence, 62 g ai/ha",10
same,"Plant response rating, Oilseed Rape",oilseed rape [2]; [14],80
same,"Plant response rating, Oilseed Rape","oilseed rape [2]; Postemergence, 62 g ai/ha",60
same,Oilseed Rape plant response rating,oilseed rape [3]; [13],60
same,Oilseed Rape plant response rating,oilseed rape [3]; [9],98
same,Oilseed Rape plant response rating,oilseed rape [3]; [10],100
same,"Plant response rating, Oilseed Rape",oilseed rape [3],90
same,"Foxtail, Giant plant response rating",giant foxtail; [13],15
same,"Foxtail, Giant plant response rating",giant foxtail; [9],100
same,"Foxtail, Giant plant response rating",giant foxtail; [10],100
same,"Plant response rating, Foxtail, Giant",giant foxtail,100
same,"Plant response rating, Soybean",soybean; [14],95
same,"Plant response rating, Soybean","soybean; Postemergence, 62 g ai/ha",80
same,"Plant response rating, Velvetleaf",velvetleaf [4]; 500 g ai/ha,100
same,"Plant response rating, Wheat",wheat,0
same,Barnyardgrass plant response rating,barnyardgrass [5]; [12],5
same,"Plant response rating, Barnyardgrass",barnyardgrass [5]; [14],35
same,"Plant response rating, Barnyardgrass",barnyardgrass [5]; [8],5
same,"Plant response rating, Barnyardgrass","barnyardgrass [5]; Postemergence, 62 g ai/ha",5
same,Barnyardgrass plant response rating,barnyardgrass [6]; [13],5
same,Barnyardgrass plant response rating,barnyardgrass [6]; [9],90
same,Barnyardgrass plant response rating,barnyardgrass [6]; [10],100
same,"Plant response rating, Barnyardgrass",barnyardgrass [6],55
same,"Plant response rating, Velvetleaf",velvetleaf [7]; [14],80
same,"Plant response rating, Velvetleaf","velvetleaf [7]; Postemergence, 62 g ai/ha",75
same,Corn plant response rating,corn; [13],5
same,Corn plant response rating,corn; [9],5
same,Corn plant response rating,corn; [10],65
same,"Plant response rating, Corn",corn,5
same,"Plant response rating, Morningglory",morningglory,90
same,Morningglory plant response rating,morningglory,100
